# Data from US8815833B2, “Stable amifostine liquid concentrate” (Seidose, LLC, priority 2006, dated 2014).
# Like-named read-outs stand apart in the source and are kept apart here. Marks after values point to notes of the source that are not given here.
# How the values were obtained:
# [1] = Storage stability of amifostine solutions by stability indicating HPLC method (% remaining); assay type: physicochemical
# Method: As will be seen below in Example 1, a 250 mg/ml liquid concentrate was prepared at pH 9, and 200 mg/ml liquid concentrates were prepared at pH 10.5, 11.5, 12.5 and 13. The stability was monitored at 40° C., 25° C. and 5° C. by a stability indicating HPLC method using the following HPLC conditions:
# Solutions of amifostine at 200 mg/ml or 250 mg/ml were prepared at the pHs shown in the table below and stored at the temperatures indicated for the times indicated. “% remaining” in the table below is determined by the HPLC method described earlier in the specification.
# physchem = assay type: physicochemical; conditions: for crystallization of solution: 200 mg/ml solution
# Method: Amifostine is a phospho ester compound that is used pharmacologically for the amelioration of side effects of radiation and chemotherapy. The compound is currently marketed as a lyophilizate of a crystalline trihydrate of amifostine, typically in vials of 500 mg, which is reconstituted to a final administration concentration of 5 to 40 mg/ml for IV infusion. […] Amifostine is known to undergo hydrolysis in aqueous solution at acidic, neutral, and mild basic conditions. Thus, it was believed that stable aqueous formulations that would not hydrolyze to any appreciable extent over typical storage time periods were not likely to be found. […] Thus, aqueous liquid concentrates of amifostine were simply thought not possible. Because such an aqueous liquid amifostine concentrate would eliminate a potential source of dosing errors in clinical practice, there is clearly a need for the same.
# At pH 9.0, 50% of the amifostine is present as the double zwitterion and 50% of amine 1 (primary amine) is present as the free base form making 50% of the amifostine have a net negative charge. At pH 10.0, only 10% of amifostine is present as a double zwitterion and the other 90% has a net negative charge; amine 1 is mainly in the free base form. […] Approximately 1% is present as the double zwitterion. More importantly, 17% of amifostine has both amines in the un-ionized form as free bases and this particular ionic species of the molecule carries about −2 charge. At this pH (11), it is observed that there is a significant improvement in the stability. […] At pH 13, over 95% of the amifostine is present with both amines in their free base forms with improved stability.
# [2] = Hydrolysis of amifostine to free thiol metabolite as function of pH (stability evaluations); assay type: physicochemical
# Description: At pH 7.4, the intrinsic pH, amifostine has a net neutral charge as a double zwitterion with the phosphate completely dissociated (−2) and the amino groups fully protonated (+2). During stability evaluations carried out for the purposes of the present invention it was observed that the hydrolysis of amifostine to release free thiol metabolite is rapid at acidic pH and even at weakly acidic pH. On the other hand, the hydrolysis was almost 100-fold slower at pH 10 and above.
# [3] = Merck Index, cited from earlier work
smiles,measurement,setting,value
"NCCCNCCSP(=O)(O)O [amifostine, S-2(3-Aminoprpropylamino)ethylphosphorthioic acid]",potency loss,"[1]; 5° C., 180-day storage, pH 12.5 and 13 formulations",≤ 3%
same,% remaining,"[1]; pH 7.4, 200 mg/ml, 25° C., 7 days",89%
same,% remaining,"[1]; pH 7.4, 200 mg/ml, 25° C., 14 days",78%
same,% remaining,"[1]; pH 7.4, 200 mg/ml, 25° C., 25 days",60%
same,% remaining,"[1]; pH 7.4, 200 mg/ml, 25° C., 33 days",52%
same,% remaining,"[1]; pH 7.4, 200 mg/ml, 40° C., 2 days",71%
same,% remaining,"[1]; pH 7.4, 250 mg/ml, 40° C., 1 day",84%
same,% remaining,"[1]; pH 7.4, 250 mg/ml, 40° C., 2 days",66%
same,% remaining,"[1]; pH 7.4, 250 mg/ml, 40° C., 3 days",57%
same,% remaining,"[1]; pH 9.0, 250 mg/ml, 5° C., 90 days",96%
same,% remaining,"[1]; pH 9.0, 250 mg/ml, 5° C., 180 days",91* %
same,% remaining,"[1]; pH 9.0, 250 mg/ml, 25° C., 10 days",83%
same,% remaining,"[1]; pH 9.0, 250 mg/ml, 25° C., 25 days",60%
same,% remaining,"[1]; pH 9.0, 250 mg/ml, 40° C., 1 day",83%
same,% remaining,"[1]; pH 10.5, 200 mg/ml, 5° C., 90 days",94%
same,% remaining,"[1]; pH 10.5, 200 mg/ml, 5° C., 180 days",90%
same,% remaining,"[1]; pH 10.5, 200 mg/ml, 25° C., 10 days",85%
same,% remaining,"[1]; pH 10.5, 200 mg/ml, 25° C., 25 days",62%
same,% remaining,"[1]; pH 10.5, 200 mg/ml, 25° C., 35 days",57%
same,% remaining,"[1]; pH 10.5, 200 mg/ml, 25° C., 60 days",39%
same,% remaining,"[1]; pH 10.5, 200 mg/ml, 40° C., 1 day",84%
same,% remaining,"[1]; pH 10.5, 200 mg/ml, 40° C., 2 days",75%
same,% remaining,"[1]; pH 11.5, 200 mg/ml, 5° C., 90 days",93%
same,% remaining,"[1]; pH 11.5, 200 mg/ml, 5° C., 180 days",92%
same,% remaining,"[1]; pH 11.5, 200 mg/ml, 25° C., 10 days",86%
same,% remaining,"[1]; pH 11.5, 200 mg/ml, 25° C., 25 days",64%
same,% remaining,"[1]; pH 11.5, 200 mg/ml, 25° C., 60 days",51%
same,% remaining,"[1]; pH 11.5, 200 mg/ml, 40° C., 1 day",90%
same,% remaining,"[1]; pH 12.5, 200 mg/ml, 5° C., 90 days",99%
same,% remaining,"[1]; pH 12.5, 200 mg/ml, 5° C., 180 days",97%
same,% remaining,"[1]; pH 12.5, 200 mg/ml, 25° C., 10 days",94%
same,% remaining,"[1]; pH 12.5, 200 mg/ml, 25° C., 32 days",86%
same,% remaining,"[1]; pH 12.5, 200 mg/ml, 25° C., 60 days",74%
same,% remaining,"[1]; pH 12.5, 200 mg/ml, 40° C., 4 days",77%
same,% remaining,"[1]; pH 13.0, Batch #1, 200 mg/ml, 5° C., 90 days",99%
same,% remaining,"[1]; pH 13.0, Batch #1, 200 mg/ml, 5° C., 180 days",98%
same,% remaining,"[1]; pH 13.0, Batch #1, 200 mg/ml, 5° C., 270 days",95%
same,% remaining,"[1]; pH 13.0, Batch #1, 200 mg/ml, 25° C., 18 days",96%
same,% remaining,"[1]; pH 13.0, Batch #1, 200 mg/ml, 25° C., 36 days",82%
same,% remaining,"[1]; pH 13.0, Batch #1, 200 mg/ml, 25° C., 60 days",74%
same,% remaining,"[1]; pH 13.0, Batch #1, 200 mg/ml, 40° C., 4 days",85-86%
same,% remaining,"[1]; pH 13.0, Batch#2, 200 mg/ml, 5° C., 90 days",100%
same,% remaining,"[1]; pH 13.0, Batch#2, 200 mg/ml, 5° C., 180 days",97%
same,% remaining,"[1]; pH 13.0, Batch#2, 200 mg/ml, 5° C., 270 days",95%
same,% remaining,"[1]; pH 13.0, Batch#2, 200 mg/ml, 25° C., 18 days",96%
same,% remaining,"[1]; pH 13.0, Batch#2, 200 mg/ml, 25° C., 36 days",82%
same,% remaining,"[1]; pH 13.0, Batch#2, 200 mg/ml, 25° C., 90 days",75%
same,% remaining,"[1]; pH 13.0, batch #3, 200 mg/ml, 5° C., 90 days",101%
same,% remaining,"[1]; pH 13.0, batch #3, 200 mg/ml, 5° C., 180 days",97%
same,% remaining,"[1]; pH 13.0, batch #3, 200 mg/ml, 5° C., 270 days",95%
same,% remaining,"[1]; pH 13.0, batch #3, 200 mg/ml, 25° C., 18 days",97%
same,% remaining,"[1]; pH 13.0, batch #3, 200 mg/ml, 25° C., 36 days",82%
same,% remaining,"[1]; pH 13.0, batch #3, 200 mg/ml, 25° C., 90 days",76%
same,crystallization of solution,"physchem; below pH 10, refrigeration conditions",crystallizes out
same,crystallization of solution,"physchem; pH 10.0, refrigeration conditions",remained clear with no crystallization observed
same,solubility,"physchem; 5 °C, pH 10, water",~100 mg/mL
same,hydrolysis to release free thiol metabolite,[2]; acidic pH and even weakly acidic pH,rapid
same,hydrolysis slower than at acidic / weakly acidic pH,[2]; pH 10 and above,~100 fold
same,pKa,[3]; first pKa (phosphate),< 2.0
same,pKa,"[3]; fourth pKa (sec. amine, amine 2)",11.7
same,pKa,[3]; second pKa (phosphate),4.2
same,pKa,"[3]; third pKa (prim. amine, amine 1)",9.0
